Holding throughout (assay type): organism-based
Holding throughout (conditions): in vivo

The test system of one data set is Gambusia affinis. The experiment in a line: Toxicity in Gambusia affinis at 10 ppm.
The next data set concerns Carassius auratus. The experiment in a line: Ichthyotoxicity in Carassius auratus at 60 ug/cm'2 by antifeedant assay.
The next data set deals with Artemia salina. Briefly: Toxicity in Artemia salina.

Our source for the Activity and LC50 values is ChEMBL document CHEMBL1149725, “4-acetylaplykurodin B and aplykurodinone B, two ichthyotoxic degraded sterols from the Mediterranean mollusk Aplysia fasciata” (J Nat Prod, 1992).

As to `CC(=O)O[C@H]1CC[C@@]2(C)[C@H]3[C@H]1CC(=O)O[C@H]3C[C@@H]2[C@H](C)CCC=C(C)C` [4-ACETYLAPLYKURODIN B], the Activity entry in the data set on Gambusia affinis was “Toxic”; in the data set with Carassius auratus, “Active”. Moreover, the LC50 in the data set with Artemia salina was 29.1 ppm.

Take `CC(C)=CCC[C@@H](C)[C@H]1C[C@@H]2OC(=O)C[C@H]3C(=O)CC[C@@]1(C)[C@H]23` [APLYKURODINONE]: the results for the Activity entry with Gambusia affinis and with Carassius auratus were “Toxic” and “Active”, respectively.

What is called LC50 is the concentration lethal to half of the exposed cells or organisms.
